# Source: patent publication US20090048112A1, “Novel Herbicides” (SYNGENTA LIMITED, priority 2005, published 2009)
# Assays:
# [1] = tested on: Monocotyledonous and dicotyledonous test plants; assay: Example B3: herbicidal action prior to emergence (pre-emergence), 96-cell seed trays, 1000 g/ha; assay type: in vivo; parameters: key: 0 is no damage to plant; 5 is total damage to plant; details: 9 days after application; for AGSTE herbicidal effect (visual assessment, scale 0-5): Agrostis tenius (Colonial bentgrass); for AMARE herbicidal effect (visual assessment, scale 0-5): Amaranthus retroflexus (redroot pigweed); for DIGSA herbicidal effect (visual assessment, scale 0-5): Digitaria sanguinalis (hairy finger-grass); for POATR herbicidal effect (visual assessment, scale 0-5): Poa trivialis (rough blue grass); for SETIT herbicidal effect (visual assessment, scale 0-5): Setaria italica (foxtail millet)
# Experimental: Monocotyledonous and dicotyledonous test plants were sown in sterilised standard soil in seed trays each with 96 cells. The seed trays were stored under controlled conditions in a climatic chamber for one day (cultivation at 23° C. during the day and 17° C. at night; 13 hours of light; 50-60% humidity). The chemicals were applied to the soil surface. The application was carried out with an aqueous suspension of the test substances, prepared as a formulation in water with 10% dimethyl sulfoxide (CAS RN 67-68-5), to achieve a field equivalent of 1000 l/ha. The application rate of the test substances was 1000 g/ha. The plants were grown on in the climatic chamber for 9 days (cultivation at 24° C. during the day and 19° C. at night; 13 hours of light; 50-60% humidity). A visual assessment of the herbicidal effect was made at 9 days after application. The following scale was used for assessment: 0, 1, 2, 3, 4 and 5 (where 0 is no damage to plant and 5 is total damage to plant).
# [2] = tested on: Monocotyledonous and dicotyledonous test plants; assay: Example B1: herbicidal action prior to emergence (pre-emergence), 500 g/ha; assay type: in vivo; details: 13 days after application, 0 = no damage, 100 = plants completely dead; for ALOMY herbicidal effect (visual assessment, percentage scale): Alopecurus myosuroides (slender foxtail); for AMARE herbicidal effect (visual assessment, percentage scale): Amaranthus retroflexus (redroot pigweed); for ECHCG herbicidal effect (visual assessment, percentage scale): Echinochloa crus-galli (barnyard grass); for STEME herbicidal effect (visual assessment, percentage scale): Stellaria media (chickweed)
# Experimental: Monocotyledonous and dicotyledonous test plants were sown in seed trays in standard compost. The trays were watered twice daily or as required. The chemicals were applied by track sprayer at the soil surface. The application was carried out with an aqueous suspension of the test substances, prepared as a formulation of 50% acetone in water with 0.5% Tween 20™ (CAS RN 9005-64-5), to achieve a field equivalent of 1000 l/ha. The application rate of the test substances was 500 g/ha. A visual assessment of the herbicidal effect was made at 13 days after application. The following percentage scale was used for assessment: 0, 5, 10, 20, 30, 40, 50, 60, 70, 80, 90, 95, 100 (where 0 is no damage to plants and 100 is plants are completely dead).
SMILES,"AGSTE herbicidal effect (visual assessment, scale 0-5) [1]","AMARE herbicidal effect (visual assessment, scale 0-5) [1]","DIGSA herbicidal effect (visual assessment, scale 0-5) [1]","POATR herbicidal effect (visual assessment, scale 0-5) [1]","SETIT herbicidal effect (visual assessment, scale 0-5) [1]","ALOMY herbicidal effect (visual assessment, percentage scale) [2]","AMARE herbicidal effect (visual assessment, percentage scale) [2]","ECHCG herbicidal effect (visual assessment, percentage scale) [2]","STEME herbicidal effect (visual assessment, percentage scale) [2]"
Cn1nc(C(F)(F)F)c(CSc2ncc(Cl)s2)c1OC(CF)CF [Compound No. 1.112],5,4,5,0,0,–,–,–,–
CCS(=O)(=O)c1c(C[S+]([O-])c2ncc(Cl)s2)c(C(F)(F)F)nn1C (racemic) [1.080],5,4,5,5,5,–,–,–,–
"CCSc1c(CS(=O)(=O)c2ncc(Cl)s2)c(C(F)(F)F)nn1C [Compound No. 1.077, 5-chloro-2-(5-ethylsulfanyl-1-methyl-3-trifluoromethyl-1H-pyrazole-4-ylmethanesulfonyl)-thiazole]",5,3,5,5,4,–,–,–,–
CSc1c(C[S+]([O-])c2ncc(Cl)s2)c(C(F)(F)F)nn1C (racemic) [Compound No. 1.089],5,5,5,5,5,–,–,–,–
CC(Oc1c(C[S+]([O-])c2ncc(Cl)s2)c(C(F)(F)F)nn1C)C(F)(F)F (mixture of isomers) [Compound 1.127],5,5,5,5,5,–,–,–,–
Cn1nc(C(F)(F)F)c(C[S+]([O-])c2ncc(Br)s2)c1F (racemic) [Compound 1.011],–,–,–,–,–,95%,95%,95%,10%
Cn1nc(C(F)(F)F)c(CS(=O)(=O)c2ncc(Br)s2)c1F [Compound No. 1.012],–,–,–,–,–,70%,90%,95%,0%
Cn1nc(C(F)(F)F)c(CS(=O)(=O)c2ncc(Cl)s2)c1Cl [Compound No. 1.018],–,–,–,–,–,60%,100%,95%,0%
Cn1nc(C(F)(F)F)c(CS(=O)(=O)c2ncc(Cl)s2)c1OCC(F)(F)C(F)F [Compound 1.120],5,5,5,5,5,–,–,–,–
Cn1nc(C(F)(F)F)c(C(F)(Cl)S(=O)(=O)c2ncc(Cl)s2)c1Cl (racemic) [Compound No. 1.044],–,–,–,–,–,40%,95%,95%,90%
Cn1nc(C(F)(F)F)c(C(Cl)S(=O)(=O)c2ncc(Cl)s2)c1Cl (racemic) [Compound No. 1.043],–,–,–,–,–,0%,80%,95%,0%
Cn1nc(C(F)(F)F)c(C(F)S(=O)(=O)c2ncc(Br)s2)c1Cl (racemic) [Compound No. 1.032],–,–,–,–,–,60%,80%,80%,60%
Cn1nc(C(F)(F)F)c(CSc2ncc(Br)s2)c1F [Compound No. 1.010],–,–,–,–,–,60%,70%,80%,0%
Cn1nc(C(F)(F)F)c(CS(=O)(=O)c2nc(Br)cs2)c1OCC(F)(F)F [Compound 1.029],–,–,–,–,–,0%,95%,0%,95%
Cn1nc(C(F)(F)F)c(CS(=O)(=O)c2nccs2)c1OCC(F)(F)F [Compound 1.049],–,–,–,–,–,30%,95%,95%,10%
Cn1nc(C(F)(F)F)c(C(F)(Cl)S(=O)(=O)c2ncc(Cl)s2)c1OCC(F)(F)F (racemic) [Compound No. 1.035],–,–,–,–,–,0%,95%,95%,20%
Cn1nc(C(F)(F)F)c(CS(=O)(=O)c2ncc(Cl)s2)c1OCC(F)(F)F [Compound No. 1.015],–,–,–,–,–,90%,95%,95%,80%
Cn1nc(C(F)(F)F)c(C(F)S(=O)(=O)c2ncc(Cl)s2)c1Cl (racemic) [Compound No. 1.045],–,–,–,–,–,70%,100%,100%,0%
Cn1nc(C(F)(F)F)c(CS(=O)(=O)c2ncc(Cl)s2)c1F [Compound No. 1.009],–,–,–,–,–,0%,95%,95%,0%
Cn1nc(C(F)(F)F)c(C(Cl)S(=O)(=O)c2ncc(Br)s2)c1OCC(F)(F)F (racemic) [Compound No. 1.039],–,–,–,–,–,60%,95%,95%,0%
Cn1nc(OC(F)F)c(C[S+]([O-])c2ncc(Cl)s2)c1C(F)(F)F (racemic) [Compound 1.054],–,–,–,–,–,95%,100%,95%,30%
Cn1nc(C(F)(F)F)c(C(F)(F)S(=O)(=O)c2ncc(Br)s2)c1OCC(F)(F)F [Compound No. 1.042],–,–,–,–,–,60%,100%,95%,90%
Cn1nc(C(F)(F)F)c(CSc2ncc(Cl)s2)c1F [Compound No. 1.007],–,–,–,–,–,95%,80%,95%,40%
Cn1nc(C(F)(F)F)c(C[S+]([O-])c2ncc(Cl)s2)c1F (racemic) [Compound 1.008],–,–,–,–,–,95%,100%,95%,80%
Cn1nc(C(F)(F)F)c(C[S+]([O-])c2nccs2)c1OCC(F)(F)F (racemic) [Compound 1.048],–,–,–,–,–,80%,95%,95%,80%
Cn1nc(C(F)(F)F)c(C(Cl)S(=O)(=O)c2ncc(Cl)s2)c1OCC(F)(F)F (racemic) [Compound No. 1.034],–,–,–,–,–,70%,100%,95%,40%
